# Patent US5374720A, “2-(substituted pyrrolidinylthio)carbapenem derivatives” (Banyu Pharmaceutical Co., Ltd., priority 1990, dated 1994)
# Where two headings read alike, the source gives them in different places.
# Legend:
# [1] = tested on: DHP-I; assay: DHP-I susceptibility (method by Kropp et al.); assay type: in vitro ADME
# Description: The DHP-I susceptibility was quantitatively analyzed by the method by Kropp et al., Antimicrob. Agents Chemother., vol. 22, p. 62-70 (1982), whereby the smaller the numerical value representing the ratio to imipenem (=1.0), the higher the stability. The antibacterial potency and the DHP-I susceptibility of the compounds of the present invention were compared with imipenem and meropenem.
# [2] = tested on: P. aeruginosa MB5000; assay: in vitro antibacterial activity, agar plate dilution method (MIC); assay type: cell-based; settings: for MIC: Pseudomonas aeruginosa, MB5000, 16 h, read-out: Minimum Inhibitory Concentration (MIC)
# Protocol: (§1) One platinum loopful of each test microorganism incubated overnight in Mueller Hinton broth, was inoculated to Mueller Hinton agar (inoculum size: 10^6 CFU/ml). Such culture media contained antibacterial agents in various concentrations. After incubation at 37° C. for 16 hours, the minimum inhibitory concentrations (MIC: μg/ml) were measured.
# [3] = tested on: P. aeruginosa AKR17; assay: as above; assay type: cell-based; settings: for MIC: Pseudomonas aeruginosa, AKR17, 16 h, read-out: Minimum Inhibitory Concentration (MIC)
# Protocol: as §1
# [4] = tested on: P. aeruginosa MB5002; assay: as above; assay type: cell-based; settings: for MIC: Pseudomonas aeruginosa, MB5002, 16 h, read-out: Minimum Inhibitory Concentration (MIC)
# Protocol: as §1
# [5] = tested on: Meth-R S. aureus; assay: disc diffusion test, relative antibacterial potency to thienamycin; assay type: cell-based; settings: ratio to thienamycin (=1.0), larger = higher activity
# Protocol: (§2) The antibacterial activities of the compounds of the present invention described in the Examples, as representative examples of the compound of the present invention, were measured by a disc diffusion test by the method of Bauer et al. (Amer. J. Clin. Pathol., vol. 45, p. 493 (1966)). Thienamycin or imipenem was used as the internal standard.
# (§3) MIC of each test compound was calculated from the diameter of the inhibition ring formed by the disc containing the test compound by using the calculation formula reported by Humphrey and Lightbown (J. Gen. Microbiol., vol. 7, p. 129 (1952)). For each microorganism, a geometrical average of MIC was obtained, and the activity ratio to thienamycin was calculated.
# (§4) The antibacterial activities are represented by the ratio to thienamycin (=1.0), whereby the larger the numerical value, the higher the activities.
# [6] = tested on: THM-R P. aeruginosa; assay: as above; assay type: cell-based; settings: ratio to thienamycin (=1.0), larger = higher activity
# Protocol: as §2, §3, §4
# [7] = tested on: highly methicillin resistant Staphylococcus aureus which is resistant to imipenem and imipenem resistant Pseudomonas aeruqinosa; settings: background; cited from earlier work
# [8] = tested on: gram positive bacteria and gram negative bacteria; settings: background; cited from earlier work
# [9] = due to the decomposition products; cited from earlier work
# [10] = tested on: β-lactamase; settings: background; cited from earlier work
# [11] = background, cited from earlier work
# [12] = tested on: DHP-I in the human kidney; settings: background; cited from earlier work
# [13] = tested on: renal dehydropeptidase I (DHP-I); settings: background; cited from earlier work
# [14] = tested on: highly methicillin resistant Staphylococcus aureus; settings: background; cited from earlier work
# [15] = background; cited from earlier work
# [16] = ratio to imipenem (=1.0), smaller = higher stability
# [17] = P. aeruginosa MB5000, Mueller Hinton agar, 10^6 CFU/ml, 37° C., 16 hours
# [18] = P. aeruginosa AKR17 (lactamase producing microorganism), Mueller Hinton agar, 10^6 CFU/ml, 37° C., 16 hours
# [19] = P. aeruginosa MB5002, Mueller Hinton agar, 10^6 CFU/ml, 37° C., 16 hours
Compound,"DHP-I susceptibility [1, 16]","MIC [2, 17] [µg/mL]","MIC [3, 18] [µg/mL]","MIC [4, 19] [µg/mL]",Relative antibacterial potency to thienamycin [5],Relative antibacterial potency to thienamycin [6],further results
"C[C@@H](O)[C@H]1C(=O)N2C(C(=O)[O-])=C(S[C@@H]3CN[C@H](C4CC[N+](C)(C)C4)C3)[C@H](C)[C@H]12 (single isomer, unassigned) [Example 13 Diastereomer A]",,0.2,1.56,0.78,,,
"C[C@@H](O)[C@H]1C(=O)N2C(C(=O)[O-])=C(S[C@@H]3CN[C@H](C4CC[N+](C)(C)C4)C3)[C@H](C)[C@H]12 (single isomer, unassigned) [Example 13]",< 0.05,,,,,11.5,
"C[C@@H](O)[C@H]1C(=O)N2C(C(=O)O)=C(S[C@@H]3CN[C@H](C4CCNCC4)C3)[C@H](C)[C@H]12 [Example 43, (1R,5S,6S)-6-[(R)-1-hydroxyethyl]-1-methyl-2-[(2S,4S)-2-(piperidin-4-yl)pyrrolidin-4-ylthio]-1-carbapen-2-em-3-carboxylic acid]",,0.1,1.56,0.39,,,
C[C@@H](O)[C@H]1C(=O)N2C(C(=O)O)=C(S[C@@H]3CN[C@H](C4CCN(C)CC4)C3)[C@H](C)[C@H]12 [Example 49],0.10,0.2,1.56,0.78,13.6,13.8,
"C[C@@H](O)[C@H]1C(=O)N2C(C(=O)O)=C(SCCN=CN)C[C@H]12 [Imipenem, (5R,6S,8R)-3-[[2-(formimidoylamino)ethyl]thio]-6-(1-hydroxyethyl)-7-oxo-1-azabicyclo[3.2.0]hept-2-en-2-carboxylic acid monohydrate, reference compound]",1.0,,,,2.57,2.0,treating effects against resistant bacteria [7]: does not show adequate treating effects against these resistant bacteria; antibacterial activities [8]: equal or higher level than thienamycin against various types of bacteria; toxicity against the kidney [9]: presents toxicity against the kidney due to the decomposition products; β-lactamase resistance [10]: has β-lactamase resistance; stability in the solid form or in an aqueous solution ([11]; compared with thienamycin): remarkably improved over thienamycin; MIC [2]: 1.56 µg/mL; MIC [3]: 6.25 µg/mL; MIC [4]: 3.13 µg/mL; decomposition by DHP-I in the human kidney [12]: likely to be decomposed by DHP-I in the human kidney
"C[C@@H](O)[C@H]1C(=O)N2C(C(=O)O)=C(SCCN)C[C@H]12 [Thienamycin, thienamycin]",,,,,,,decomposition by / stability against DHP-I [13]: likely to be decomposed by a certain enzyme in vivo such as renal dehydropeptidase I; antibacterial activities [8]: strong antibacterial activities over a wide range against gram positive bacteria and gram negative bacteria; recovery rate in the urine [15]: low; chemical stability [11]: chemically unstable; decomposition by DHP-I in the human kidney [12]: likely to be decomposed by DHP-I in the human kidney

# Now from value to compound, other results behind:
"DHP-I susceptibility [1, 16]","MIC [2, 17] [µg/mL]","MIC [3, 18] [µg/mL]","MIC [4, 19] [µg/mL]",Compound,Relative antibacterial potency to thienamycin [5],Relative antibacterial potency to thienamycin [6],further results
< 0.05,0.1,0.78,0.78,"C[C@@H](O)[C@H]1C(=O)N2C(C(=O)O)=C(S[C@@H]3CN[C@H](C4CCNC4)C3)[C@H](C)[C@H]12 (single isomer, unassigned) [Example 11 Diastereomer A]",15.2,12.7,
< 0.05,,,,"C[C@@H](O)[C@H]1C(=O)N2C(C(=O)O)=C(S[C@@H]3CN[C@H](C4CCNC4)C3)[C@H](C)[C@H]12 (single isomer, unassigned) [Example 11 Diastereomer B]",12.3,11.5,"Minimum Inhibitory Concentration (MIC) [2, 17]: 0.2 µg/mL; Minimum Inhibitory Concentration (MIC) [3, 18]: 1.56 µg/mL; Minimum Inhibitory Concentration (MIC) [4, 19]: 1.56 µg/mL"
,,1.56,1.56,"C[C@@H](O)[C@H]1C(=O)N2C(C(=O)O)=C(S[C@@H]3CN[C@H](C4CCN(C)C4)C3)[C@H](C)[C@H]12 (single isomer, unassigned) [Example 12 Diastereomer A]",,,
< 0.05,,,,"C[C@@H](O)[C@H]1C(=O)N2C(C(=O)O)=C(S[C@@H]3CN[C@H](CC4CN[C@H](C(N)=O)C4)C3)[C@H](C)[C@H]12 (stereo partly drawn) [Example 32, (1R, 5S,6S)-2-[(2R,4S)-2-[(2S)-2-carbamoylpyrrolidin-4-ylmethyl]pyrrolidin-4-ylthio]-6-[(R)-1-hydroxyethyl]-1-methyl-1-carbapen-2-em-3-carboxylic acid]",,19.5,
0.07,,,,"C[C@@H](O)[C@H]1C(=O)N2C(C(=O)O)=C(S[C@@H]3CN[C@H](CC4CN[C@H](C(=O)N(C)C)C4)C3)[C@H](C)[C@H]12 (stereo partly drawn) [Example 34, (1R,5S,6S)-6-[(R)-1-hydroxyethyl]-1-methyl-2-[(2R,4S)-2-[(2S)-2-(dimethylcarbamoyl)pyrrolidin-4-ylmethyl]pyrrolidin-4-ylthio]-1-carbapen-2-em-3-carboxylic acid]",22.7,21.6,
,0.39,3.13,6.25,"C[C@@H](O)[C@H]1C(=O)N2C(C(=O)O)=C(S[C@@H]3CN[C@H](C(=O)N(C)C)C3)[C@H](C)[C@H]12 [Meropenem, (4R,5S,6S,8R,2'S,4'S)-6-(1-hydroxyethyl)-4-methyl-3-[2-(N,N-dimethylaminocarbonyl)-pyrrolidin-4-ylthio]-7-oxo-1-azabicyclo[3.2.0]hept-2-en-2-carboxylic acid, reference compound]",3.22,6.9,DHP-I susceptibility [1]: 0.12; decomposition by / stability against DHP-I [13]: substantially improved; antibacterial activities against highly methicillin resistant Staphylococcus aureus [14]: not adequate
